Results: paper PMC4184797, “The Structure, Stability and Pheromone Binding of the Male Mouse Protein Sex Pheromone Darcin” (PLoS ONE, 2014)

Legend:
Assay type in all cases: binding
MUP11 [1] = biological target: T1, MUP11 (Mus musculus, UniProt P04938); assay: ITC, one-site model, […] °C; also 1H-15N HSQC NMR titration
T1 construct: N-terminal His6-tagged recombinant MUP11 (mature protein)
T1 sequence (P04938 20-181): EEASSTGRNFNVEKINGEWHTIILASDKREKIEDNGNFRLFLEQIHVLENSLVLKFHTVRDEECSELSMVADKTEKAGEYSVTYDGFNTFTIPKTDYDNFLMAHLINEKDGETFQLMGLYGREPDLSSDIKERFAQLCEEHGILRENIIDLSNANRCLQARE

darcin [2] = biological target: T2, darcin (Mus musculus, UniProt Q5FW60); assay: as above
T2 construct: gene Mup20; N-terminal His6-tagged recombinant darcin (mature protein)
T2 sequence (Q5FW60 20-181): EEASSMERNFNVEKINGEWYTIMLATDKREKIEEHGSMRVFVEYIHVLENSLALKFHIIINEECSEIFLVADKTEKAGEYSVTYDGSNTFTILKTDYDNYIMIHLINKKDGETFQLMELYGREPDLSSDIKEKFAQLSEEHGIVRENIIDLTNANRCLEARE

MUP11 [3] = biological target: T1, MUP11; assay: 1H-15N HSQC NMR chemical shift perturbation
darcin [4] = biological target: T2, darcin; assay: 1H-15N HSQC NMR chemical shift perturbation

Row | Kd (MUP11 [1]) [nM] | Kd (darcin [2]) [nM] | SMILES | 1H-15N HSQC NMR chemical shift perturbation (MUP11 [3]) | 1H-15N HSQC NMR chemical shift perturbation (darcin [4])
1 | ~2760 | ~173 | CCC(C)c1nccs1 (stereo not shown) [SBT, 2-sec-butyl-thiazole] |  | 
2 |  |  | CC1=CC(=O)c2ccccc2C1=O [K3, menadione] | The smaller ligands, K3 and SBT, bind to both darcin and MUP11 in the hydrophobic cavity of the beta barrel | The smaller ligands, K3 and SBT, bind to both darcin and MUP11 in the hydrophobic cavity of the beta barrel
